This note sets out measurements from patent publication US20100196325A1 (priority 2007, published 2010).

The structures appear in SMILES notation. “Also recorded” adds a separate entry of the source. Where two headings read alike, the source gives them in different places.

Data set [1] concerns modified vaccinia virus, such as GLV-1h68. Also on record: species or system patient. Conditions: human, in vivo.
Another data set relates to tumor. Also on record: species or system patient. Conditions: human, in vivo.
Data set [2] relates to PANC-1 human pancreatic carcinoma cells. Also on record: species or system nude mice. Conditions: mouse, in vivo.
Data set [3] has as its system recombinant vaccinia virus GLV-1h68. The format is cell-based.
Data set [4] relates to A549 lung carcinoma cells. Also on record: species or system nude mice. Conditions: mouse, in vivo.
The conditions of data set [5]: human, in vivo; for Side effects from the virus: iv.
Data set [6] deals with GI-101A human breast carcinoma cells. Also on record: species or system nude mice. Conditions: mouse, in vivo.
The nature of data set [7]: Pock formation (systemic toxicity) after i.v. GLV-1h68 in GI-101A tumor-bearing mice. Conditions: 80 days after virus injection; GLV-1h68 virus-treated animals given four doses of irinotecan 80 mg/kg i.p.; n=8.
In data set [8] the test system is recombinant vaccinia virus GLV-1h68. The class given is cell-based. This is another data set of the same source.
Data set [9] has the same test system. The format is cell-based. The source holds these as a separate data set.

Regarding `Nc1ccn(C2OC(CO)C(O)C2(F)F)c(=O)n1` (centres unmarked) [Gemcitabine, 4-amino-1-[3,3-difluoro-4-hydroxy-5-(hydroxymethyl)tetrahydrofuran-2-yl]-1H-pyrimidine-2-one], in data set [1], the “Viral load in the bloodstream” value is on record as “is maintained or increases before subsequently decreasing”, the “Viral load in the bloodstream: decrease” value is “decreases more quickly; also recorded: decreases more rapidly” and the “Viral load in the bloodstream: increase” value was “increases to a lesser extent”. In addition, the “Viral load in the bloodstream” value in data set [1] (iv) is “decreases over the period of time”. In the data set on tumor, the Tumor growth entry is listed as “tumor growth is arrested or decreases”. In addition, in the data set on tumor (iv), the Tumor growth entry is on record as “tumor growth is arrested or decreases”. Further, in [2], the “Effect on tumor growth (in words)” value was “decrease tumor growth in the mice at both 50 mg/kg and 100 mg/kg doses to some extent”. For the same compound, in [3], the “Concentration at which growth of GLV-1h68 was completely inhibited” value was at least 1.0 µM. Besides, in [4], the “Effect on tumor growth (in words)” value is on record as “did not cause any inhibition of tumor growth”. Besides, in data set [5], the “Body weight and pock formation” value was “body weight of the patient is improved and any pock formation dissipates”; the “Patient's symptoms” value is given as “symptoms subside”; the Virus-associated side effects result is on record as “Fewer virus-associated side effects”; the “Side effects from the virus” value is listed as “suffers fewer side effects from the virus”.
As for `CCc1c2c(nc3ccc(OC(=O)N4CCC(N5CCCCC5)CC4)cc13)-c1cc3c(c(=O)n1C2)COC(=O)[C@]3(O)CC` [Irinotecan], in data set [1], the “Viral load in the bloodstream” value was “is maintained or increases before subsequently decreasing”, the “Viral load in the bloodstream: decrease” value was “decreases more quickly; also recorded: decreases more rapidly” and the “Viral load in the bloodstream: increase” value was “increased to a lesser extent”. Besides, the “Viral load in the bloodstream” value in data set [1] (iv) is listed as “decreases over the period of time”. For the same compound, the Tumor growth result with tumor is given as “tumor growth is arrested or decreases”. In the data set with tumor (iv), the Tumor growth entry is on record as “tumor growth is arrested or decreases”. Moreover, the “Effect on tumor growth (in words)” value in data set [6] is “increased tumor growth”. For the same compound, the “Animals in which no pocks were observed on any part of the body” value in data set [7] is on record as 7 out of 8. In addition, in data set [5], the “Body weight and pock formation” value is “body weight of the patient is improved and any pock formation dissipates”; the “Patient's symptoms” value is “symptoms subside”; the Virus-associated side effects result was “Fewer virus-associated side effects”; the “Side effects from the virus” value is “suffers fewer side effects from the virus”.
Take `COc1cccc2c1C(=O)c1c(O)c3c(c(O)c1C2=O)C[C@@](O)(C(=O)CO)C[C@@H]3O[C@H]1C[C@H](N)[C@H](O)[C@H](C)O1` [Doxorubicin]: in data set [1], the “Viral load in the bloodstream” value is given as “is maintained or increases before subsequently decreasing”, the “Viral load in the bloodstream: decrease” value is “decreases more quickly; also recorded: decreases more rapidly” and the “Viral load in the bloodstream: increase” value was “increased to a lesser extent”. Further, the “Viral load in the bloodstream” value in data set [1] (iv) is listed as “decreases over the period of time”. The Tumor growth entry in the data set with tumor is listed as “tumor growth is arrested or decreases”. Further, in data set [8], the “Concentration at which growth of GLV-1h68 was completely inhibited” value was at least 1 µM and the “Effect on GLV-1h68 growth in GI-101A cells (in words)” value was “started to inhibit”. In data set [5], the “Body weight and pock formation” value was “body weight of the patient is improved and any pock formation dissipates”; the “Patient's symptoms” value is “symptoms subside”; the Virus-associated side effects result is on record as “Fewer virus-associated side effects”; the “Side effects from the virus” value was “suffers fewer side effects from the virus”.
Consider `N.N.[Cl][Pt][Cl]` [Cisplatin], for which, in data set [1], the “Viral load in the bloodstream” value was “is maintained or increases before subsequently decreasing”, the “Viral load in the bloodstream: decrease” value is recorded as “decreases more quickly; also recorded: decreases more rapidly” and the “Viral load in the bloodstream: increase” value is “increased to a lesser extent”. Moreover, the “Viral load in the bloodstream” value in data set [1] (iv) was “decreases over the period of time”. Moreover, the Tumor growth result in the data set on tumor is recorded as “tumor growth is arrested or decreases”. In addition, in data set [9], the “Concentration at which growth of GLV-1h68 was completely inhibited” value is at least 100 µM and the “Effect on GLV-1h68 growth in GI-101A cells (in words)” value is on record as “started to inhibit; also recorded: significantly inhibited the virus growth”. In data set [5], the “Body weight and pock formation” value is “body weight of the patient is improved and any pock formation dissipates”; the “Patient's symptoms” value was “symptoms subside”; the Virus-associated side effects result is given as “Fewer virus-associated side effects”; the “Side effects from the virus” value is on record as “suffers fewer side effects from the virus”.
